Measurements as given in patent US20240327456A1, “CANCER THERAPEUTICS” (UNIVERSITAT DE BARCELONA, priority 2021, published 2024).
In brackets after ≈: the same amount, converted by molar mass. Entries after “also recorded” stand apart in the source; their conditions may differ. Like-named read-outs stand apart in the source and are kept apart here. Each block holds one compound with its values, some of them ahead of it. Numbered stars: 1 amine (or outer) side, 2 acyl side, 3 side chain; on linkers, the order of the positions; unused ones are H or OH. Square brackets hold non-standard residues; d marks the D form. Peptide text beside a SMILES is read from it. * marks the point of attachment. Diphenylacetyl = O=C(C(c1ccccc1)c1ccccc1)*; Phe(4-Me) = Cc1ccc(C[CH](N)C(=O)O)cc1; NMeβAla = CN(CCC(=O)[*:2])[*:1]; Cha = N[CH](CC1CCCCC1)C(=O)O; Chg = N[CH](C(=O)O)C1CCCCC1; X1 = C1CCC2(CC1)CCN(*)CC2; Dab = NCC[CH](N)C(=O)O; Bz = O=C(c1ccccc1)*

Tests used:
[1] = target: T1, HA-KRASG12V with C-RAF or with PI3K (Homo sapiens, UniProt P01116, G12V); assay: Co-immunoprecipitation of HA-KRASG12V with C-RAF or PI3K in Hela cells; format: cell-based; conditions: 100 µM for 2 h, EGF 10 min, starved Hela cells expressing HA-KRASG12V
T1 construct: expressed in transfected cells; host or cells: HeLa cells, Lipofectamine 2000, plasmid pEF-HA-KRASG12V
Description: Immunoprecipitation was performed with anti-HA antibodies and Western blot of the bound (BO) and input (IN) fractions with anti-p110αPI3K and anti-C-RAF. Experiments were repeated at least three times.
Cells were seeded in a media containing 10% FBS for 24 h and were serum starved for the next 24 h. Afterwards, they were incubated with different concentrations of the compounds for 2 h. A successive treatment for 10 min with EGF (50 ng/mL; Sigma-Aldrich) was performed in order to activate cell signaling.
HeLa cells were transfected with pEF-HA-KRASG12V plasmid, obtained as described in C. Lopez-Alcala et al. (“Identification of essential interacting elements in K-Ras/calmodulin binding and its role in K-Ras localization.”; J. Biol. Chem. 2008; April 18; 283(16):10621-31. doi: 10.1074/jbc.M706238200. Epub 2008 Jan. 8. PMID: 18182391). Lipofectamine®2000 Transfection Reagent (Invitrogen) was used as a transfection method following the manufacturer's instructions.
Cells were transfected with pEF-HA-KRASG12V plasmid for 24 h and starved for the next 24 h before treatment with the peptides and EGF. Next, an IP with anti-HA antibody crosslinked to agarose beads was performed. […]

[2] = system: pancreatic adenocarcinoma human cell lines (MPanc-96, HPAF-II, PA-TU-8902, SW1990, PA-TU 8988T, PANC-1); format: cell-based; conditions: for specificity cancer cells versus normal cells (cell viability): cancer cell lines versus hTERT-RPE, MTS
Description: (§1) Cells cultured in 10% FCS were treated with compound (I) in a dose range from 0 to 25 µM and incubated for 24 h, when cell viability was determined by MTS assay. Experiment was repeated 3 times. Differences were assessed using one-way ANOVA and Tukey Multiple Comparisons Test and considered significant when p≤0.05.
(§2) 10,000 cells in 50 μL of 10% FBS-containing medium, were cultured for 24 h and then treated with the drugs (50 μL final volume) for a further 24 h in each well of a 96-well plate (100 μL final volume). MTS viability assay (CellTiter 96® Aqueous One Solution Cell Proliferation Assay, Promega G3580) was performed following the manufacturer's specifications. The absorbance of each well was measured with a multimode plate reader (Spark, Tecan) at 490 nm. The percentage of cell viability was calculated by dividing the absorbance of each well by the average absorbance of the control wells (which had no significant deviation when Student's t-test was applied).
(§3) We next incubated IPR-473 at several concentrations with different cancer cell lines and a normal cell line (-hTERT-RPE cells). Cell viability was measured by a MTS cell proliferation assay. […] Cells were placed in a 96-well plate culture containing 10% FBS (Bilogical Industries)-containing medium. (10000 cell per well). These cells were then cultured for 24 hours and then treated with IPR-473 at concentrations of 10 μM, 15 μM, 20 μM and 25 μM for a further 24 hours incubation.
The different cell lines used included human pancreatic cancer cells MPANC-96, human pancreatic adenocarcinoma cells HPAF-II, human pancreatic grade II adenocarcinoma PA-TU, human pancreatic ductaladenocarcinoma SW1990, human pancreas adenocarcinoma 8988-T and human pancreatic ductal carcinoma PANC-1. Each of these comprises a pancreatic tumor cell line. The control as stated was hTERT-RPE cells and that are not cancerigenous.

hTERT-RPE cells = format: cell-based, human; conditions: at the concentrations of the tumor cell IC50 (approximately 20 μM), 24 h, MTS
Description: as §1, §2
as §3, with “These cells were then cultured for 24 hours and then treated with IPR-473 at concentrations of 10 μM, 15 μM, 20 μM and 25 μM for a further 24 hours incubation.” left out

[3] = Solubility in PBS with 15% β-cyclodextrin; format: physicochemical; conditions: 1 mM, 24 hours agitation, supernatant by HPLC; mean±SD
Description: xxxxx Furthermore, an additional effort was done to reevaluate those peptidomimetics from the first generation that were not soluble in the in vitro assay conditions or formed aggregates as described above when incubated with the RPE cells.
We then put these peptidomimetics under constant agitation for 24 hours. […] Data are expressed as the mean±SD.

[4] = system: Ras signaling pathway (Raf/ERK and PI3K/AKT); assay: Western blot of RAS signaling pathways in EGF-stimulated serum starved hTERT-RPE cells; format: cell-based, human; conditions: 50 μM, 0.5% DMSO, 2 h before EGF 50 ng/mL 10 min
Description: Cells were seeded in a media containing 10% FBS for 24 hours and were serum starved (0.5%) for the next 24 hours. Afterwards, they were incubated with different concentrations of the compounds for 2 hours. A successive treatment for 10 minutes with EGF (50 ng/mL) (Sigma-Aldrich) was performed in order to activate cell signaling.
Proteins were resolved by SDS-PAGE and transferred onto PVDF membranes (Immobilon-P, Millipore). Non-specific binding of the antibodies was assessed by incubating the membranes for 1 hour at room temperature with a buffer composed of 20 mM Tris-HCl pH 7.5, 150 mM NaCl, 0.05% Tween 20 and 5% bovine serum albumin. Protein expression was determined by probing the blots overnight at 4° C. with the specified antibodies:anti-c-RAF (BD Transduction 610151, 1:500); anti-phospho-c-RAF S338 (Cell Signaling 9427, 1:500); anti-PI3Kp110a (Cell Signaling 4249, 1:1000); anti-AKT (Cell Signaling 9272, 1:1000); anti-phospho-AKT S473 (Cell Signaling 4060, 1:1000); anti-phospho-AKT Thr308 (Cell Signaling 4056, 1:1000); anti-p44/42 MAPK (ERK1/2) (Cell Signaling 9102, 1:2000); anti-phospho-p44/42 MAPK(ERK1/2) T202/Y204 (Cell Signaling 4370, 1:2000); anti-GAP120 (Santa Cruz SC-63, 1:200); anti-HA (Sigma-Aldrich H6908, 1:1000); or anti-α-tubulin (Sigma-Aldrich T9026, 1:2000). Next, after washing the membranes they were incubated with the corresponding HRP-coupled secondary antibodies (goat anti-rabbit BioRad 170-6515 or goat anti-mouse BioRad 170-6516, 1:3000) for 60 minutes at room temperature and washed again. Protein detection was performed by enhanced chemiluminescence (EZ-ECL, Biological Industries). Emitted light was captioned and quantified (ChemiDoc, BioRad).
For analysis of RAS signalling, cells were lysed in a buffer containing 67 mM Tris-HCl pH 6.8 and 2% SDS and then the samples were heated at 97° C. for 15 minutes. After this, the protein concentration of the lysates was assayed using the Lowry method. An aliquot of 15 μg of protein per sample was loaded onto the gels.
GAP120 detection was used as control.
To consider a peptidomimetic as a positive hit, it should inhibit the activity of the two protein cascades, and as a consequence the phosphorylation of the RAF (P-RAF), AKT (P-AKT) and ERK (P-ERK) should not be observed.

[5] = Solubility in water at 5% DMSO; format: physicochemical
From the text: (§4) The methods used are well known and would be known to one of skill in the art. As a control, we evaluated the solubility in water which contained 5% DMSO to identify any possible issue related with a low solubility. Data are expressed as the mean±SD.

PAMPA assay = format: in vitro ADME; conditions: for Pe / Retention %: mean±SD
From the text: As part of our analysis, we evaluated IP-14-01, IP-14-03 and IP-14-08 and their biophysical properties by studying them using a solution of 5% DMSO in water. We conducted a permeability through biological barriers (PAMPA assay) and their internalization in SH-SY5Y cells.
as §4

SMILES: CC(C)CC(NC(=O)C(Cc1ccccc1)NC(=O)C1CCCN1C(=O)C(CCN)NC(=O)c1ccccc1)C(=O)N1CCC2(CCCCC2)CC1 (stereo not shown) [IP-14-08] (Bz-[Dab]PFL-X1; configuration not given here)
Inhibition of RAS-effectors protein cascades (P-RAF, P-AKT, P-ERK) by Western blot [4]: able to inhibit the two RAS-effectors protein cascades | Solubility (in words) ([5]; water at 5% DMSO): good solubility | solubility ([5]; water at 5% DMSO, mean±SD, read-out: Solubility): 1320 ± 22 µM (≈ 942 µg/mL) | Transport % (PAMPA assay): 0% | Pe (PAMPA assay): 0 cm/s | Retention % (PAMPA assay): 97.6 ± 5.0%

SMILES: CC(C)CC(NC(=O)C(CN)N(C)C(=O)CCN(C)C(=O)C(Cc1ccc(-c2ccccc2)cc1)NC(=O)C(c1ccccc1)c1ccccc1)C(=O)N1CCCC1 (stereo not shown) [IPR-473]
Inhibition of RAS-effectors protein cascades (P-RAF, P-AKT, P-ERK) by Western blot [4]: able to inhibit all the two different protein cascades (RAF/ERK and PI3K/AKT) more effectively than even IP-14-01; also recorded: highest degree of inhibition of the RAS effectors | specificity cancer cells versus normal cells (cell viability) [2]: high specificity for pancreatic cancer cell lines

SMILES: NCCCCC(NC(=O)C(Cc1ccccc1)NC(=O)C(CC1CCCC1)NC(=O)c1c2ccccc2cc2ccccc12)C(=O)N1CCCC1 (stereo not shown) [IP-14-02]
Inhibition of RAS-effectors protein cascades (P-RAF, P-AKT, P-ERK) by Western blot [4]: able to inhibit the RAF and AKT but not ERK

SMILES: CC(C)CC(NC(=O)COc1ccc(C(C)(C)C)cc1)C(=O)NC(Cc1cccc2ccccc12)C(=O)NC(CCCCN)C(=O)N1CCCCC1 (stereo not shown) [IP-14-05]
Conc. in PBS β-cyclodextrin 15% [3]: 849 ± 43 µM

SMILES: CC(O)C(NC(=O)CCN(C)C(=O)C(Cc1ccc(-c2ccccc2)cc1)NC(=O)C(c1ccccc1)c1ccccc1)C(=O)NC(C(=O)N1CCCC1)C1CCCCC1 (stereo not shown) [IPR-474]
Inhibition of RAS-effectors protein cascades (P-RAF, P-AKT, P-ERK) by Western blot [4]: not better than IP-14-01

SMILES: Cc1ccc(CC(NC(=O)C(c2ccccc2)c2ccccc2)C(=O)N(C)CCC(=O)NC(CC2CCCCC2)C(=O)NC(C(=O)N2CCCC2C(N)=O)C2CCCCC2)cc1 (stereo not shown) [IPR-471] (Diphenylacetyl-[Phe(4-Me)][NMeβAla][Cha][Chg]P-NH2; configuration not given here)
Inhibition of RAS-effectors protein cascades (P-RAF, P-AKT, P-ERK) by Western blot [4]: not better than IP-14-01

Further lines, with some results ahead:

IC50 ([2]; 24 h): ~20 µM
SMILES: CC(C)C[C@H](NC(=O)[C@H](CN)N(C)C(=O)CCN(C)C(=O)[C@H](Cc1ccc(-c2ccccc2)cc1)NC(=O)C(c1ccccc1)c1ccccc1)C(=O)N1CCCC1 [compound of formula (I), (S)-N-(3-(((S)-3-amino-1-((S)-4-methyl-1-oxo-1-(pyrrolidin-1-yl)pentan-2-ylamino)-1-oxopropan-2-yl)(methyl)amino)-3-oxopropyl)-3-(biphenyl-4-yl)-2-(2,2-diphenylacetamido)-N-methylpropanamide]
PI3K and c-RAF1 interaction with KRAS (co-immunoprecipitation) [1]: reduced PI3K and c-RAF1 interaction with KRAS | normal cells affected (hTERT-RPE cells): less than 5%

Conc. in PBS β-cyclodextrin 15% [3]: 766 ± 19 µM
SMILES: CCC(C)C(NC(=O)C(c1ccccc1)c1ccccc1)C(=O)NC(CCc1ccccc1)C(=O)NC(CCCCN)C(=O)N1CCC2(CCCCC2)CC1 (stereo not shown) [IP-14-07]

Solubility (in words) [5]: good solubility | solubility [5]: 1333 ± 13 µM (≈ 974 µg/mL) | Transport % (PAMPA assay): 0% | Pe (PAMPA assay): 5.6e-10 ± 3.1e-10 cm/s | Retention % (PAMPA assay): 55.7 ± 7.1%
SMILES: CC(NC(=O)C(CN)NC(=O)CCN(C)C(=O)C(Cc1ccc(-c2ccccc2)cc1)NC(=O)C(c1ccccc1)c1ccccc1)C(=O)N1CCCC1 (stereo not shown) [IP-14-01]
Inhibition of RAS-effectors protein cascades (P-RAF, P-AKT, P-ERK) by Western blot [4]: able to inhibit the two RAS-effectors protein cascades; also recorded: most potent inhibitor | specificity cancer cells versus normal cells (cell viability) [2]: did not show cell-line specificity

Solubility (in words) [5]: good solubility | solubility [5]: 549 ± 90 µM (≈ 400 µg/mL) | Transport % (PAMPA assay): 0% | Pe (PAMPA assay): 1.6e-09 ± 3.6e-10 cm/s | Retention % (PAMPA assay): 77.9 ± 2.4%
SMILES: CC(NC(=O)C(NC(=O)CCN(C)C(=O)C(CN)NC(=O)C(c1ccccc1)c1ccccc1)C1CCCCC1)C(=O)N1CCC2(CCCCC2)CC1 (stereo not shown) [IP-14-03]
Inhibition of RAS-effectors protein cascades (P-RAF, P-AKT, P-ERK) by Western blot [4]: able to inhibit the two RAS-effectors protein cascades

Conc. in PBS β-cyclodextrin 15% [3]: 780 ± 30 µM
SMILES: CC(C)CC(NC(=O)CCCN(C)C(=O)C(CCCN)NC(=O)C(Cc1cccc2ccccc12)NC(=O)c1c2ccccc2cc2ccccc12)C(=O)N1CCC2(CCCCC2)CC1 (stereo not shown) [IP-14-04]

Conc. in PBS β-cyclodextrin 15% [3]: 949 ± 8 µM
SMILES: CC(C)CC(NC(=O)COc1ccc(C(C)(C)C)cc1)C(=O)NC(Cc1cccc2ccccc12)C(=O)NC(CN)C(=O)N1CCC2(CCCCC2)CC1 (stereo not shown) [IP-14-09]
